Laboratory results taken from ChEMBL document CHEMBL5576152, “Antitubercular evaluation of dihydropyridine-triazole conjugates: design, synthesis, in vitro screening, SAR and in silico ADME predictions” (RSC Med Chem, 2024).
Values after ≈ are worked out from the molar mass of the structure shown.

Assays:
[1] = Selectivity index, ratio of CC50 for cytotoxicity against human THP-1 cells to MIC90 for antitubercular activity against Mycobacterium tuberculosis H37Ra; type: toxicity, cell-based; settings: read-out: Selectivity Index
[2] = tested on: Mycobacterium tuberculosis; test: Antitubercular activity against Mycobacterium tuberculosis H37Ra assessed as reduction in microbial growth incubated for 5 days by resazurin microtiter assay; type: functional; settings: 120 h, time 5 day
[3] = Cytotoxicity against human THP-1 cells assessed as reduction in cell viability incubated for 48 hrs by resazurin assay; type: toxicity, cell-based
[4] = Stability of compound in rat plasma assessed as remaining compound measured upto 120 mins by UPLC analysis; type: ADME, cell-free; settings: read-out: Stability
[5] = Stability of compound in simulated intestinal fluid assessed as remaining compound at pH 6.8 measured upto 120 mins by UPLC analysis; type: ADME; settings: read-out: Stability
[6] = Cmax in Sprague-Dawley rat at 50 mg/kg, po measured for 5 to 1440 mins by LC-MS/MS analysis; type: ADME, organism-based; settings: in vivo, time 5-1440 min
[7] = Stability of compound in simulated physiological fluid assessed as remaining compound at pH 7.4 measured upto 120 mins by UPLC analysis; type: ADME; settings: read-out: Stability
[8] = Tmax in Sprague-Dawley rat at 50 mg/kg, po measured for 5 to 1440 mins by LC-MS/MS analysis; type: ADME, organism-based; settings: in vivo, time 5-1440 min
[9] = MRT in Sprague-Dawley rat at 50 mg/kg, po measured for 5 to 1440 mins by LC-MS/MS analysis; type: ADME, organism-based; settings: in vivo, time 5-1440 min
[10] = Stability of compound in simulated gastric fluid assessed as remaining compound at pH 1.2 measured upto 120 mins by UPLC analysis; type: ADME; settings: read-out: Stability
[11] = Half life in Sprague-Dawley rat at 50 mg/kg, po measured for 5 to 1440 mins by LC-MS/MS analysis; type: ADME, organism-based; settings: in vivo, time 5-1440 min
[12] = Apparent volume of distribution in Sprague-Dawley rat at 50 mg/kg, po measured for 5 to 1440 mins by LC-MS/MS analysis; type: ADME, organism-based; settings: in vivo, time 5-1440 min
[13] = tested on: Mycobacterium tuberculosis; test: Antitubercular activity against Mycobacterium tuberculosis H37Rv assessed as reduction in microbial growth by BACTEC 460-radiometric assay; type: functional
[14] = tested on: Mycobacterium tuberculosis; test: Antitubercular activity against Mycobacterium tuberculosis H37Rv assessed as reduction in microbial growth by microplate alamar blue assay; type: functional
[15] = tested on: Mycobacterium tuberculosis; test: Antitubercular activity against Mycobacterium tuberculosis H37Ra assessed as reduction in microbial growth at 2 ug/ml incubated for 5 days by resazurin microtiter assay relative to control; type: functional; settings: 120 h, time 5 day
[16] = tested on: Mycobacterium tuberculosis; test: Antitubercular activity against Mycobacterium tuberculosis H37Ra assessed as reduction in microbial growth at 6 ug/ml incubated for 5 days by resazurin microtiter assay relative to control; type: functional; settings: 120 h, time 5 day

SMILES | MIC90 [2] | other results
CC1=C(C(=O)NCc2cn(-c3ccc(C)cc3)nn2)C(c2ccc(Cl)cc2)C2=C(CC(C)(C)CC2=O)N1 (stereo not given) | 6.44 µg/mL | selectivity ratio [1]: 6.88; CC50 at 48 h [3]: 44.3 µg/mL (≈ 85.9 µM)
CC1=C(C(=O)NCc2cn(Cc3ccccc3)nn2)C(c2ccccc2)C2=C(CC(C)(C)CC2=O)N1 (stereo not given) | > 25 µg/mL | 
COc1cc(C2C(C(=O)NCc3cn(-c4ccccc4)nn3)=C(C)NC3=C2C(=O)CC(C)(C)C3)cc(OC)c1OC (stereo not given) | > 25 µg/mL | 
COc1ccc(-n2cc(CNC(=O)C3=C(C)NC4=C(C(=O)CC(C)(C)C4)C3c3cccc(Cl)c3)nn2)cc1 (stereo not given) | > 25 µg/mL | 
CC1=C(C(=O)NCc2cn(-c3ccc(F)cc3)nn2)C(c2ccc(Cl)cc2)C2=C(CC(C)(C)CC2=O)N1 (stereo not given) | 25.9 µg/mL | 
COc1cc(C2C(C(=O)NCc3cn(-c4cccc(C(F)(F)F)c4)nn3)=C(C)NC3=C2C(=O)CC(C)(C)C3)cc(OC)c1OC (stereo not given) | > 25 µg/mL | 
COc1ccc(C2C(C(=O)NCc3cn(-c4cccc(C(F)(F)F)c4)nn3)=C(C)NC3=C2C(=O)CC(C)(C)C3)cc1 (stereo not given) | > 25 µg/mL | 
CC1=C(C(=O)NCc2cn(-c3ccccc3)nn2)C(c2ccccc2)C2=C(CC(C)(C)CC2=O)N1 (stereo not given) | > 25 µg/mL | 
CC1=C(C(=O)NCc2cn(-c3ccc(C)cc3)nn2)C(c2ccccc2)C2=C(CC(C)(C)CC2=O)N1 (stereo not given) | 24.1 µg/mL | 
COc1cc(C2C(C(=O)NCc3cn(-c4ccc(F)cc4)nn3)=C(C)NC3=C2C(=O)CC(C)(C)C3)cc(OC)c1OC (stereo not given) | > 25 µg/mL | 
CC1=C(C(=O)NCc2cn(-c3ccc(F)cc3)nn2)C(c2cccs2)C2=C(CC(C)(C)CC2=O)N1 (stereo not given) | > 25 µg/mL | 
COc1ccc(-n2cc(CNC(=O)C3=C(C)NC4=C(C(=O)CC(C)(C)C4)C3c3cccs3)nn2)cc1 (stereo not given) | > 25 µg/mL | 
CC1=C(C(=O)NCc2cn(-c3ccccc3)nn2)C(c2ccc(F)cc2)C2=C(CC(C)(C)CC2=O)N1 (stereo not given) | 12.1 µg/mL | 
CC1=C(C(=O)NCc2cn(-c3ccc(Cl)cc3)nn2)C(c2scnc2C)C2=C(CC(C)(C)CC2=O)N1 (stereo not given) | > 25 µg/mL | 
CC1=C(C(=O)NCc2cn(-c3ccc(C)cc3)nn2)C(c2ccc(F)cc2)C2=C(CC(C)(C)CC2=O)N1 (stereo not given) | 6.24 µg/mL | selectivity ratio [1]: > 16; remaining at 2 h [4]: ≥ 70%; remaining at 2 h [5]: ≥ 70%; Cmax [6]: 1400 ng/mL; remaining at 2 h [7]: ≥ 70%; Tmax [8]: 1.33 h; MRT [9]: 6.69 h; CC50 at 48 h [3]: > 99.8 µg/mL; remaining at 2 h [10]: ≥ 70%; half-life [11]: 250 min; Vd(app) [12]: 27.78 mL/kg
CC1=C(C(=O)NCc2cn(-c3ccc(C)cc3)nn2)C(c2scnc2C)C2=C(CC(C)(C)CC2=O)N1 (stereo not given) | > 25 µg/mL | 
COc1ccc(-n2cc(CNC(=O)C3=C(C)NC4=C(C(=O)CC(C)(C)C4)C3c3ccc(Cl)cc3)nn2)cc1 (stereo not given) | 6.64 µg/mL | selectivity ratio [1]: 9.73; CC50 at 48 h [3]: 64.6 µg/mL (≈ 121 µM)
COc1ccc(C2C(C(=O)NCc3cn(-c4ccccc4)nn3)=C(C)NC3=C2C(=O)CC(C)(C)C3)cc1 (stereo not given) | > 25 µg/mL | 

SMILES | MIC90 [2] | other results
COC(=O)C1=C(C)NC(C)=C(C2=NN(C(C)=O)C(c3ccccc3)C2)C1c1cccc([N+](=O)[O-])c1 (stereo not given) |  | MIC [13]: > 12.5 µg/mL
CC1=C(C(=O)NCc2cn(-c3ccccc3)nn2)C(c2ccc(Cl)cc2)C2=C(CC(C)(C)CC2=O)N1 (stereo not given) | 6.26 µg/mL | selectivity ratio [1]: 10.6; CC50 at 48 h [3]: 66.4 µg/mL (≈ 132 µM)
CC1=C(C(=O)NCc2cn(Cc3ccccc3)nn2)C(c2ccc(Cl)cc2)C2=C(CC(C)(C)CC2=O)N1 (stereo not given) | > 25 µg/mL | 
CC1=C(C(=O)NCc2cn(-c3ccc(Cl)cc3)nn2)C(c2ccccc2)C2=C(CC(C)(C)CC2=O)N1 (stereo not given) | 25.1 µg/mL | 
CC1=C(C(=O)NCc2cn(-c3ccc(C)cc3)nn2)C(c2ccc(Cl)cc2)C2=C(CCCC2=O)N1 (stereo not given) | > 25 µg/mL | 
COc1ccc(-n2cc(CNC(=O)C3=C(C)NC4=C(C(=O)CC(C)(C)C4)C3c3ccc(F)cc3)nn2)cc1 (stereo not given) | 6.44 µg/mL | selectivity ratio [1]: > 16; CC50 at 48 h [3]: > 103 µg/mL
CC1=C(C(=O)NCc2cn(-c3ccccc3C(F)(F)F)nn2)C(c2ccc(Cl)cc2)C2=C(CC(C)(C)CC2=O)N1 (stereo not given) | > 25 µg/mL | 
COc1ccc(-n2cc(CNC(=O)C3=C(C)NC4=C(C(=O)CC(C)(C)C4)C3c3ccccn3)nn2)cc1 (stereo not given) | > 25 µg/mL | 
CC1=C(C(=O)NCc2cn(Cc3ccccc3)nn2)C(c2scnc2C)C2=C(CC(C)(C)CC2=O)N1 (stereo not given) | > 25 µg/mL | 
CC1=C(C(=O)NCc2cn(-c3ccccc3)nn2)C(c2scnc2C)C2=C(CC(C)(C)CC2=O)N1 (stereo not given) | > 25 µg/mL | 
COc1cc(-n2cc(CNC(=O)C3=C(C)NC4=C(C(=O)CC(C)(C)C4)C3c3ccc(Cl)cc3)nn2)cc(OC)c1OC (stereo not given) | > 25 µg/mL | 
COc1ccc(-n2cc(CNC(=O)C3=C(C)NC4=C(C(=O)CC(C)(C)C4)C3c3ccccc3Cl)nn2)cc1 (stereo not given) | 13.3 µg/mL | 
CC1=C(C(=O)NCc2cn(-c3ccc(C)cc3)nn2)C(c2ccc(F)cc2)C2=C(CCCC2=O)N1 (stereo not given) | 11.8 µg/mL | 
CC1=C(C(=O)NCc2cn(-c3ccccc3)nn2)C(c2cccs2)C2=C(CC(C)(C)CC2=O)N1 (stereo not given) | > 25 µg/mL | 
CCCCc1nc(Cl)c(C2C(C(=O)Nc3ccc(F)cc3)=C(C)NC(C)=C2C(=O)Nc2ccc(F)cc2)n1Cc1ccccc1 |  | MIC [14]: 0.02 µg/mL
CC1=C(C(=O)NCc2cn(-c3ccc(C(C)C)cc3)nn2)C(c2ccc(Cl)cc2)C2=C(CC(C)(C)CC2=O)N1 (stereo not given) | 27.2 µg/mL | 
CO[C@H]1/C=C/O[C@@]2(C)Oc3c(C)c(O)c4c(O)c(c(/C=N/N5CCN(C)CC5)c(O)c4c3C2=O)NC(=O)/C(C)=C\C=C\[C@H](C)[C@H](O)[C@@H](C)[C@@H](O)[C@@H](C)[C@H](OC(C)=O)[C@@H]1C [RIFAMPIN] |  | inhibition at 2 µg/mL [15]: > 99%
CN[C@@H]1[C@H](O[C@H]2[C@H](O[C@H]3[C@H](O)[C@@H](O)[C@H](N=C(N)N)[C@@H](O)[C@@H]3N=C(N)N)O[C@@H](C)[C@]2(O)C=O)O[C@@H](CO)[C@H](O)[C@H]1O [STREPTOMYCIN] |  | inhibition at 6 µg/mL [16]: > 99%
